According to US20140243239A1, “MULTIPLEXED KINASE INHIBITOR BEADS AND USES THEREOF” (University of North Carolina at Chapel Hill, priority 2011, published 2014):

Key:
AKT = AKT phosphorylation in pancreatic cancer PDX tumors; type: in vivo, mice; conditions: daily treatment, harvested 4-6 h after last dose
Experimental: Kinome reprogramming in PDX model of pancreatic cancer after BKM120 treatment: The kinome response of a pancreatic cancer PDX to BKM120 treatment was evaluated using MIB/MS. […] Kinome reprogramming in PDX models: De-identified tumors from patients are grafted into immunecompromised mice and passaged. All tumors are characterized using microarray and mutational analysis. Hematoxylin & eosin staining of a patient tumor at the time of operation and after several passages over a 1.5 yr period showing similar glandular architecture with surrounding stroma. Variable levels of pERK1/2 and pAKT(S473) was seen across pancreatic cancer PDX. PDX P100422 with moderate levels of pAKT was selected for BKM120 treatment. pAKT expression in BKM120 versus vehicle treated PDX tumor. Mice were treated daily with either vehicle control (n=3) or BKM120 (n=3) and tumors were harvested 4-6 h after the last dose. PDX tumors were treated daily for 28 days. […] The 3 vehicle control and 3 BKM120 treated tumors showing inhibition of pAKT were analyzed using MIB/MS. Activation and repression of the kinome in response to PI3K inhibition in PDX P100422.

PDX P100422 = assay: Tumor growth of pancreatic cancer PDX P100422; type: in vivo, mice
Source text: Kinome reprogramming in PDX models: De-identified tumors from patients are grafted into immunecompromised mice and passaged. All tumors are characterized using microarray and mutational analysis. Hematoxylin & eosin staining of a patient tumor at the time of operation and after several passages over a 1.5 yr period showing similar glandular architecture with surrounding stroma. Variable levels of pERK1/2 and pAKT(S473) was seen across pancreatic cancer PDX. PDX P100422 with moderate levels of pAKT was selected for BKM120 treatment. pAKT expression in BKM120 versus vehicle treated PDX tumor. Mice were treated daily with either vehicle control (n=3) or BKM120 (n=3) and tumors were harvested 4-6 h after the last dose. PDX tumors were treated daily for 28 days. […] The 3 vehicle control and 3 BKM120 treated tumors showing inhibition of pAKT were analyzed using MIB/MS. Activation and repression of the kinome in response to PI3K inhibition in PDX P100422.

BT474 cells = assay: BT474 luminescent cell viability assay; type: cell-based; conditions: 50 nM lapatinib, 0-72 hours
Experimental: The different colors represent different time points of (50 nM) lapatinib treatment relative to DMSO control-treated cells. From light to dark, the time points are 4, 24, and 48 hrs of lapatinib treatment.

MEK1 = MEK1 activation in HPAC pancreatic cancer cells; type: cell-based
Experimental: Kinome reprogramming in pancreatic cancer—cell type and inhibitor specific. The kinome response to drug in 3 pancreatic cancer cell lines (HPAC, AsPC-1, HPAF-II) was also evaluated using 3 kinase inhibitors that are currently in Phase I/II clinical trials: BKM120 (Novartis), an oral pan-class 1 PI3K inhibitor, […] (Glaxo Smith-Kline), an ATP competitive PI3K/mTOR inhibitor, and GSK1120212, a reversible allosteric inhibitor of MEK1/2 (Glaxo Smith-Kline). The kinome response for GSK2126458 and GSK1120212 was compared using MIB/MS and RTK arrays to determine if kinome reprogramming was inhibitor-specific. […] Thus, kinome reprogramming is target-specific.

MEK = conditions: Gilmartin et al. 2011; cited from earlier work
MEK-ERK pathway = assay: Window trial in TNBC patients (LCCC 1122), MIB/MS of tumor biopsies; type: in vivo, human; conditions: 7-day post-treatment versus pre-treatment biopsy, preliminary
Source text: Kinome reprogramming in TNBC patients treated with the MEK inhibitor GSK1120212 is being evaluated (LCCC 1122).

Nc1cc(C(F)(F)F)c(-c2cc(N3CCOCC3)nc(N3CCOCC3)n2)cn1 [BKM120]
AKT phosphorylation (AKT): inhibited AKT phosphorylation
effectiveness in the PDX model (PDX P100422; small sample size): not clearly effective
number of tumors showing tumor growth inhibition relative to controls (PDX P100422; treated daily for 28 days): 4 tumors

CS(=O)(=O)CCNCc1ccc(-c2ccc3ncnc(Nc4ccc(OCc5cccc(F)c5)c(Cl)c4)c3c2)o1 [lapatinib]
growth of BT474 cells (BT474 cells): growth inhibition

CC(=O)Nc1cccc(-n2c(=O)n(C3CC3)c(=O)c3c(Nc4ccc(I)cc4F)n(C)c(=O)c(C)c32)c1 [GSK1120212]
MEK1 activation (MEK1): inhibited MEK1 activation
fold lower affinity of MEK phosphorylated at the activation loop serines than nonphosphorylated MEK (MEK): 20 fold
MEK-ERK pathway in patient tumors (MEK-ERK pathway): effectively inhibited
kinome reprogramming in patient tumors (MEK-ERK pathway): upregulation of MRCKG, FER and DDR1
